Results: article PMC9118553, “In Vivo Bioconcentration of 10 Anionic Surfactants in Rainbow Trout Explained by In Vitro Data on Partitioning and S9 Clearance” (Environmental Science & Technology, 2022)
Several values for one entry are separate records, joined by “and”; a condition that tells them apart may be missing. Equal entries are not always repeated. Where two headings read alike, the source gives them in different places.

System: rainbow trout
Experiment: In vivo bioconcentration experiment with a mixture of anionic surfactants, flow-through aquaria, 10 °C, pH 7.8;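 as to Uptake rate constant kU: L kg-1 h-1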
Conditions: for Concentration in fish: individual fish
Method in brief: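 Juvenile rainbow trout exposed to a 10-surfactant mixture for 4 days, then 7-day depuration, in flow-through aquaria at 10 °C, pH 7.8. Whole-fish homogenates and water analysed by LC-MS/MS against BEHP internal standard. kU, kT and BCF (=kU/kT) estimated by joint Bayesian model including water-concentration uncertainty.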

[1] = from measured concentrations in water, Bayesian estimate, 95% credible interval in brackets
[2] = measured concentrations in water, simpler estimation method (Text S3), 95% confidence intervals in brackets

In the case of CCCCCCCCCCCCCCCCS(=O)(=O)O [C16SO3, hexadecylsulfonate], the “Uptake rate constant kU” value is reported as 6.3 L kg^–1 h^–1, the “Log BCF” value (determined with measured concentrations in water) is reported as 3.14 L kg-1 ww and the Concentration in fish (elimination phase, 97 h) is reported as 4206 ng g-1 ww and 4275 ng g-1 ww and 4280 ng g-1 ww. The Concentration in fish (elimination phase, 98 h) was 3644 ng g-1 ww and 3202 ng g-1 ww and 3035 ng g-1 ww, the Concentration in fish (elimination phase, 100 h) was 4355 ng g-1 ww and 3469 ng g-1 ww and 3603 ng g-1 ww and the Concentration in fish (elimination phase, 103 h) was 3251 ng g-1 ww and 4192 ng g-1 ww and 3692 ng g-1 ww. The Concentration in fish (elimination phase, 120 h) was 2630 ng g-1 ww and 4641 ng g-1 ww and 2805 ng g-1 ww, the Concentration in fish (elimination phase, 128 h) was 3635 ng g-1 ww and 2712 ng g-1 ww and 2831 ng g-1 ww and the Concentration in fish (elimination phase, 144 h) was 2859 ng g-1 ww and 2503 ng g-1 ww and 3401 ng g-1 ww. For the same molecule, the Concentration in fish (elimination phase, 168 h) was 2804 ng g-1 ww and 2276 ng g-1 ww and 2244 ng g-1 ww, the Concentration in fish (elimination phase, 192 h) was 1669 ng g-1 ww and 1852 ng g-1 ww and 2440 ng g-1 ww and the Concentration in fish (elimination phase, 264 h) was 1420 ng g-1 ww and 2150 ng g-1 ww and 967 ng g-1 ww. For the same molecule, the Concentration in fish (exposure phase, 1 h) was 440 ng g-1 ww and 319 ng g-1 ww and 614 ng g-1 ww, the Concentration in fish (exposure phase, 2 h) was 300 ng g-1 ww and 304 ng g-1 ww and 147 ng g-1 ww and the Concentration in fish (exposure phase, 3 h) was 347 ng g-1 ww and 392 ng g-1 ww and 451 ng g-1 ww. For the same molecule, the Concentration in fish (exposure phase, 4 h) was 510 ng g-1 ww and 1310 ng g-1 ww and 2283 ng g-1 ww, the Concentration in fish (exposure phase, 6 h) was 557 ng g-1 ww and 678 ng g-1 ww and 649 ng g-1 ww and the Concentration in fish (exposure phase, 24 h) was 2045 ng g-1 ww and 1698 ng g-1 ww and 1479 ng g-1 ww. For the same molecule, the Concentration in fish (exposure phase, 48 h) was 3941 ng g-1 ww and 3596 ng g-1 ww and 1879 ng g-1 ww, the Concentration in fish (exposure phase, 72 h) was 1532 ng g-1 ww and 3782 ng g-1 ww and 3167 ng g-1 ww and the Concentration in fish (exposure phase, 96 h) was 3775 ng g-1 ww and 5248 ng g-1 ww and 3695 ng g-1 ww. For the same molecule, the “Elimination rate constant kT” value [1] was 0.0047 (0.0026–0.0062) h^–1, the “Uptake rate constant kU” value [1] was 6.3 (5.3–7.4) L kg^–1 ww h^–1 and the “diffusion coefficient (D) in the epithelial membrane of the gills” value (in vivo) was 1.6 × 10^–8 m h^–1. The “BCF (kinetic)” value (kinetic BCF from measured concentrations in water, 95% credible interval in brackets) was 1370 (1070–2200) L kg^–1 ww, the BCF [2] was 1480 (14) L kg-1 ww and the “Elimination rate constant kT” value [2] was 0.0073 (10) h-1. For the same molecule, the “Uptake rate constant kU” value [2] was 10.8 (10) L kg-1 ww h-1.
